In ChEMBL document CHEMBL3879907, “8-azabicyclo[3.2.1]octane compounds as mu opioid receptor antagonists” (2014) one finds pKi and Intrinsic activity data, which are given here for 31 compounds.

Test [1] has as its target Kappa-type opioid receptor (Cavia porcellus, UniProt P41144). In words: Displacement of [3H]-diprenorphine from guinea pig kappa opioid receptor expressed in CHOK1 cell membranes. To be noted: cho-k1.
For test [2], the target named is Delta-type opioid receptor (Homo sapiens, UniProt P41143). In words: Displacement of [3H]-diprenorphine from human delta opioid receptor expressed in cell membranes.
For test [3], the target named is Mu-type opioid receptor (Homo sapiens) (UniProt P35372). As to the kind of experiment: Intrinsic activity at human mu opioid receptor expressed in CHOK1 cell membranes at 0.00001 to 20 uM after 30 mins by GTP-Eu nucleotide exchange assay relative to DAMGO. It is filed as functional. To be noted: CHO-K1.
Mu-type opioid receptor (Homo sapiens), sequence (P35372 whole entry): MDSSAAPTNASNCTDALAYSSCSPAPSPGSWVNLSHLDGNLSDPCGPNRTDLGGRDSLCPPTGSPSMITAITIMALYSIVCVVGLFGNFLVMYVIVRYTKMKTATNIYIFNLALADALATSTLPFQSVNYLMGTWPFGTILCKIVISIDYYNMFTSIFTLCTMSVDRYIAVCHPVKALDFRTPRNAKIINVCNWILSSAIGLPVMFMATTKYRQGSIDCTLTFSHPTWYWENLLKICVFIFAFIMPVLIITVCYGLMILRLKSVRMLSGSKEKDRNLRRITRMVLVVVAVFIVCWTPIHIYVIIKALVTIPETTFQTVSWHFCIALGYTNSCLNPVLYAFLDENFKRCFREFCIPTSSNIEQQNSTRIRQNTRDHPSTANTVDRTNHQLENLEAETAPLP

Delta-type opioid receptor, sequence (P41143 whole entry): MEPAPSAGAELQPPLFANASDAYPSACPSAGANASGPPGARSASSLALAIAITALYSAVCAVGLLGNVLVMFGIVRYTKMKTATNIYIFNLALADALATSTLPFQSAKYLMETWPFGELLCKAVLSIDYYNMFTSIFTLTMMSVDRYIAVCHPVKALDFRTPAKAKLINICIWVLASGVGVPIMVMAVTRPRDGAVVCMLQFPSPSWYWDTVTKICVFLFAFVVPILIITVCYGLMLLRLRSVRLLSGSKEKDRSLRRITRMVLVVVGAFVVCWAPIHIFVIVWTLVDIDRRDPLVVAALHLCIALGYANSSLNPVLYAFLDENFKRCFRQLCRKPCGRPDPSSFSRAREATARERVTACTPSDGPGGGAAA
Kappa-type opioid receptor, sequence (P41144 whole entry): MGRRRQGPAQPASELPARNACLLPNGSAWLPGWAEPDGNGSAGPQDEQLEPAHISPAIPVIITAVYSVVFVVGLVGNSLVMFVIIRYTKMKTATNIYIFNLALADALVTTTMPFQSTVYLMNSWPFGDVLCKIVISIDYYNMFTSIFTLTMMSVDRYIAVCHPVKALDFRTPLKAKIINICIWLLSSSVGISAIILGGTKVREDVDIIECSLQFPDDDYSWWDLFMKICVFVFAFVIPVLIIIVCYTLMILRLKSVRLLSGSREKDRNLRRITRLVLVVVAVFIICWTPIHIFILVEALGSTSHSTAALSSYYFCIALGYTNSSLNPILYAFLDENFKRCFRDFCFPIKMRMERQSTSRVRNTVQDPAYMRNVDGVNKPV

As for `NC(=O)c1cccc([C@H]2C[C@H]3CC[C@@H](C2)N3CCN(Cc2c(F)cccc2F)C(=O)[C@H](O)CO)c1.O=C(O)C(F)(F)F`, the pKi in test [1] and in test [2] was 7 to 10.5 each time. This compound gave an Intrinsic activity in test [3] of less than 40%.
`NC(=O)c1cccc([C@H]2C[C@H]3CC[C@@H](C2)N3CCN(Cc2c(F)cccc2F)C(=O)C2(O)CC2)c1.O=C(O)C(F)(F)F`: the pKi in test [1] and in test [2] was 7 to 10.5 throughout. In test [3], this compound gave an Intrinsic activity of less than 40%.
With `CC(C)NC(=O)N(CCN1[C@@H]2CC[C@H]1C[C@@H](c1cccc(C(N)=O)c1)C2)CC1CCCCC1`, the negative-log Ki (pKi) in test [1] and in test [2] was 7 to 10.5 each time. Further, the Intrinsic activity in test [3] is less than 40%.
In the case of `COc1ccc(NC(=O)N(CCN2[C@@H]3CC[C@H]2C[C@@H](c2cccc(O)c2)C3)CC2CCCCC2)cc1OC`, the negative logarithm of the Ki (pKi) in test [1] and in test [2] was 7 to 10.5 each time. Also, the Intrinsic activity in test [3] was less than 40%.
In the case of `CS(=O)(=O)CC(=O)N(CCN1[C@@H]2CC[C@H]1C[C@@H](c1cccc(C(N)=O)c1)C2)CC1CCC1.O=C(O)C(F)(F)F`, the negative logarithm of the Ki (pKi) in test [1] and in test [2] was 7 to 10.5 throughout. Also, the Intrinsic activity in test [3] was less than 40%.
With `CC(C)(C)OCC(=O)N(CCN1[C@@H]2CC[C@H]1C[C@@H](c1cccc(C(N)=O)c1)C2)Cc1c(F)cccc1F.O=C(O)C(F)(F)F`, the pKi in test [1] and in test [2] was 7 to 10.5 each time. In addition, the Intrinsic activity in test [3] was less than 40%.
As to `NC(=O)c1cccc([C@H]2C[C@H]3CC[C@@H](C2)N3CCN(CC2CCCC2)C(=O)[C@H](O)CO)c1.O=C(O)C(F)(F)F`, the pKi in test [1] and in test [2] was 7 to 10.5 in each case. Moreover, in test [3], the Intrinsic activity was less than 40%.
On to `CS(=O)(=O)CC(=O)N(CCN1[C@@H]2CC[C@H]1C[C@@H](c1cccc(C(N)=O)c1)C2)CC1CCCC1.O=C(O)C(F)(F)F`, for which the pKi in test [1] and in test [2] was 7 to 10.5 each time. For the same compound, in test [3], the Intrinsic activity was less than 40%.
As for `O=C(Nc1ccc2c(c1)OCO2)N(CCN1[C@@H]2CC[C@H]1C[C@@H](c1cccc(O)c1)C2)CC1CCCCC1`, the pKi in test [1] and in test [2] was 7 to 10.5 in each case. Moreover, the Intrinsic activity in test [3] was less than 40%.
As for `O=C(O)CCC(=O)N(CCN1[C@@H]2CC[C@H]1C[C@@H](c1cccc(O)c1)C2)Cc1c(F)cccc1F`, the pKi in test [1] and in test [2] was 7 to 10.5 in each case. The compound further came in with an Intrinsic activity in test [3] of less than 40%.
Regarding `NC(=O)c1cccc([C@H]2C[C@H]3CC[C@@H](C2)N3CCN(Cc2ccc(F)cc2)C(=O)CO)c1.O=C(O)C(F)(F)F`, the pKi in test [1] and in test [2] was 7 to 10.5 in each case. Also, in test [3], the Intrinsic activity was less than 40%.
With `NC(=O)c1cccc([C@H]2C[C@H]3CC[C@@H](C2)N3CCN(CCCc2ccccc2)C(=O)CO)c1`, the negative-log Ki (pKi) in test [1] and in test [2] was 7 to 10.5 each time. Moreover, the Intrinsic activity in test [3] was less than 40%.
On to `NC(=O)c1cccc([C@H]2C[C@H]3CC[C@@H](C2)N3CCCN(Cc2ccccc2)C(=O)[C@H](O)CO)c1.O=C(O)C(F)(F)F`, for which the pKi in test [1] and in test [2] was 7 to 10.5 throughout. Also, in test [3], the Intrinsic activity was less than 40%.
Turning to `NC(=O)c1cccc([C@H]2C[C@H]3CC[C@@H](C2)N3CCN(CC2CCCCC2)C(=O)Cc2ccccc2)c1`, the pKi in test [1] and in test [2] was 7 to 10.5 each time. In test [3], this compound returned an Intrinsic activity of less than 40%.
For the compound `C[C@H](CN1[C@@H]2CC[C@H]1C[C@@H](c1cccc(O)c1)C2)N(Cc1ccccc1)C(=O)CCC(=O)O`, the pKi in test [1] and in test [2] was 7 to 10.5 each time. In test [3], the Intrinsic activity is less than 40%.
As for `O=C(CO)N(CCN1[C@@H]2CC[C@H]1C[C@@H](c1cccc(O)c1)C2)Cc1ccc(F)cc1`, the pKi in test [1] and in test [2] was 7 to 10.5 throughout. Also, the Intrinsic activity in test [3] was less than 40%.
For the compound `CC(C)(C)C(=O)N(CCN1[C@@H]2CC[C@H]1C[C@@H](c1cccc(C(N)=O)c1)C2)Cc1c(F)cccc1F.O=C(O)C(F)(F)F`, the pKi in test [1] and in test [2] was 7 to 10.5 throughout. Also, in test [3], the Intrinsic activity was less than 40%.
Consider `O=C(C1CCCCC1)N(CCN1[C@@H]2CC[C@H]1C[C@@H](c1cccc(O)c1)C2)CC1CCCCC1`, for which the negative logarithm of the Ki (pKi) in test [1] and in test [2] was 7 to 10.5 in each case. In test [3], this compound gave an Intrinsic activity of less than 40%.
Turning to `CC(C)C[C@H](O)C(=O)N(CCN1[C@@H]2CC[C@H]1C[C@@H](c1cccc(C(N)=O)c1)C2)CC1CCCCC1`, the pKi in test [1] and in test [2] was 7 to 10.5 throughout. In addition, in test [3], the Intrinsic activity is less than 40%.
On to `CCC(=O)N(CCN1[C@@H]2CC[C@H]1C[C@@H](c1cccc(O)c1)C2)CC1CCCCC1`, for which the negative-log Ki (pKi) in test [1] and in test [2] was 7 to 10.5 each time. In test [3], this compound gave an Intrinsic activity of less than 40%.
`CN[C@@H](CO)C(=O)N(CCN1[C@@H]2CC[C@H]1C[C@@H](c1cccc(C(N)=O)c1)C2)CC1CCCCC1.O=C(O)C(F)(F)F.O=C(O)C(F)(F)F`: the negative-log Ki (pKi) in test [1] and in test [2] was 7 to 10.5 throughout. Besides, the Intrinsic activity in test [3] is less than 40%.
As for `NC(=O)c1cccc([C@H]2C[C@H]3CC[C@@H](C2)N3CCN(CC2CCCC2)C(=O)CO)c1.O=C(O)C(F)(F)F`, the negative logarithm of the Ki (pKi) in test [1] and in test [2] was 7 to 10.5 each time. Besides, the Intrinsic activity in test [3] is less than 40%.
On to `CC(C)(O)C(=O)N(CCN1[C@@H]2CC[C@H]1C[C@@H](c1cccc(C(N)=O)c1)C2)Cc1c(F)cccc1F.O=C(O)C(F)(F)F`, for which the pKi in test [1] and in test [2] was 7 to 10.5 each time. The Intrinsic activity in test [3] is less than 40%.
On to `CS(=O)(=O)CC(=O)N(CCN1[C@@H]2CC[C@H]1C[C@@H](c1cccc(C(N)=O)c1)C2)CC1CCCCC1`, for which the negative-log Ki (pKi) in test [1] and in test [2] was 7 to 10.5 each time. This compound yielded an Intrinsic activity in test [3] of less than 40%.
Take `NC(=O)c1cccc([C@H]2C[C@H]3CC[C@@H](C2)N3CCN(Cc2ccccc2)C(=O)C2(O)CC2)c1.O=C(O)C(F)(F)F`: the negative logarithm of the Ki (pKi) in test [1] and in test [2] was 7 to 10.5 each time. In addition, the Intrinsic activity in test [3] was less than 40%.
Take `NC(=O)c1cccc([C@H]2C[C@H]3CC[C@@H](C2)N3CCN(CC2CCCCC2)C(=O)C[C@H](O)CO)c1.O=C(O)C(F)(F)F`: the pKi in test [1] and in test [2] was 7 to 10.5 each time. The compound further registered an Intrinsic activity in test [3] of less than 40%.
Regarding `CN(C)[C@@H](Cc1ccccc1)C(=O)N(CCN1[C@@H]2CC[C@H]1C[C@@H](c1cccc(C(N)=O)c1)C2)CC1CCCCC1`, the pKi in test [1] and in test [2] was 7 to 10.5 in each case. The compound further yielded an Intrinsic activity in test [3] of less than 40%.
As for `O=C(NCc1ccccc1)N(CCN1[C@@H]2CC[C@H]1C[C@@H](c1cccc(O)c1)C2)CC1CCCCC1`, the negative-log Ki (pKi) in test [1] and in test [2] was 7 to 10.5 each time. Besides, the Intrinsic activity in test [3] was less than 40%.
As for `O=C([C@@H](O)c1ccccc1)N(CCN1[C@@H]2CC[C@H]1C[C@@H](c1cccc(O)c1)C2)CC1CCCCC1`, the pKi in test [1] and in test [2] was 7 to 10.5 throughout. Further, the Intrinsic activity in test [3] is less than 40%.
Turning to `CC(C)(C)C(=O)N(CCN1[C@@H]2CC[C@H]1C[C@@H](c1cccc(C(N)=O)c1)C2)Cc1ccccc1.O=C(O)C(F)(F)F`, the negative logarithm of the Ki (pKi) in test [1] and in test [2] was 7 to 10.5 each time. This compound also had an Intrinsic activity in test [3] of less than 40%.
In the case of `O=C(O)CCC(=O)N(CCN1[C@@H]2CC[C@H]1C[C@@H](c1cccc(O)c1)C2)CC1CCCCC1` (single isomer, unassigned), the negative logarithm of the Ki (pKi) in test [1] and in test [2] was 7 to 10.5 in each case. This compound showed an Intrinsic activity in test [3] of less than 40%.
